Test results: publication PMC12040169 (PLOS Biology, 2025)

Test: in vitro
Conditions: human, hela cells, % viability

Structure (SMILES)	viability at 28.5 h, 10 µM [%]
O=C(CN1CCCC(c2cccc(Cc3ccc(F)cc3)n2)C1)Nc1nccs1 (stereo not shown) [CBK286503]	93.1
COc1ccc(OC)c(-c2cc(C(=O)O)c(C)o2)c1 [CBK049343]	97.9
CCN(CC)C(=O)CN1CCCN(c2nccc(OCCN3CCOCC3)n2)CC1 [CBK084094]	99.5
Nc1cc(O)nc(SCCN2CCN(c3ccc(C(F)(F)F)cc3[N+](=O)[O-])CC2)n1 [CBK265225]	88.5
Cc1cc(NC(=O)C2CC2)sc1C(=O)NC(C)c1ccc(F)cc1F (stereo not shown) [CBK296625]	104
Cc1cccc(C)c1NC(=O)Nc1cc(N2CCNCC2)c2occc2c1 [CBK061748C]	82.8
O=C(Nc1ccccc1-n1cccc1)C1Cc2c([nH]c3ccccc23)C2(CCN(Cc3ccccc3)C2)N1 (stereo not shown) [CBK059395]	95.9
O=C(c1csc2c1CCCC2)N1CCc2c(nc[nH]c2=O)C1 [CBK283717]	77.7
COc1ccc(Cl)cc1NC(=O)Nc1ccc(C(=O)N2CCOCC2)cc1 [CBK266958]	87.1
O=[N+]([O-])c1ccc(CN2CCN(Cc3cc(Br)ccc3O)CC2)cc1 [CBK263652G]	88.9
O=C(NC(c1ccccc1)c1ccccc1)N1CCN(Cc2ccccc2)CC1 [CBK155630]	86.3
C=CCNC(=O)N1CCC2(CC1)OCCc1c2n(C)c2ccccc12 [CBK047354]	84.8
CCOC(=O)c1c(NC(=O)CN2CCCCC2)sc2c1CCCC2O (stereo not shown) [CBK261644]	90.5
COc1ccc(C(NC(=O)C2CCN(C(=O)OC(C)C)CC2)c2ccccc2C)cn1 (stereo not shown) [CBK059704]	101
Cc1cc(S)n2nc(C)c(-c3ccccc3)c2n1 [CBK288423]	99
O=C1CSC2(C(=O)Nc3ccccc32)N1c1ccc([N+](=O)[O-])cc1 (stereo not shown) [CBK026035]	93.5
Nc1ncc(-c2cccc3cccnc23)nc1N1CCC[C@@H]1CO [CBK063470]	108
COc1ccc2c(c1)cc(C(=O)N1CCCn3cncc3C1)n2C [CBK306516]	96.1
CCN(CC)CCCNc1nccc(-c2cn(C)nc2C)n1 [CBK306654]	97.4
NS(=O)(=O)c1ccc(NC(=O)CC2SC(=O)NC2=O)cc1 (stereo not shown) [CBK263855]	98.9
O=C(c1ccccc1-n1cccc1)N1CCCC1 [CBK149608]	81.6
CC(C)(C)c1csc(NC(=O)C2CC(=O)N(Cc3cccs3)C2)n1 (stereo not shown) [CBK175547]	109

Structure (SMILES)	viability at 28.5 h, 10 µM [%]
O=C(Nc1ccc(F)cc1)c1ccccc1NS(=O)(=O)c1ccc(Br)cc1 [CBK045438]	100
O=[N+]([O-])c1cc(S(=O)(=O)Nc2ccc3cn[nH]c3c2)ccc1Cl [CBK067160]	91.1
CS(=O)(=O)NC[C@H]1O[C@@H](Cc2nc(-c3ccc(F)cc3)no2)[C@H](O)[C@@H]1O [CBK288906]	95.3
N#Cc1ccccc1OCCO [CBK001443]	97.9
O=C(O)c1ccc(NS(=O)(=O)c2cc(C(=O)O)ccc2Br)cc1 [CBK113164]	106
O=C(O)CCN1C(=O)/C(=C/c2ccc(C(=O)O)cc2)SC1=S [CBK262785]	93.2
CCCn1nnnc1NCc1cccc(Cl)c1 [CBK288130]	98.7
O=C(Cc1ccccc1[N+](=O)[O-])Nc1ccc(S(=O)(=O)N2CCCC2)cc1 [CBK265292]	87.1
CCCC(=O)N[C@@H](C)Cn1c(C(F)(F)F)cc2cccnc21 [CBK283232]	92.7
COc1ccc(Cl)cc1Nc1nc(N)nc(CC(=O)CSc2ccc(C)cc2)n1 [CBK265200]	90.2
O=C1N=C(NCC2CCCCC2)OC1Cc1ccccc1 (stereo not shown) [CBK067023]	94.1
Cc1nccn1CCC1CCN(C(=O)c2cn3ccccc3n2)CC1 [CBK281868]	91.2
COc1ccc(C(=O)NCC2(c3ccccc3)CCCC2)c(OC)c1 [CBK058164]	113
Cc1cc(Nc2ccccc2C)c2cc(C(=O)O)ccc2n1 [CBK269458C]	103
COc1cc(CNc2nc(-c3cccc4ccccc34)cn3ccnc23)cc(OC)c1OC [CBK037397]	112
COc1ccc(C(=O)Nc2cccc3nsnc23)cc1OC [CBK260973]	92.2
CCNC(=O)C1(Cc2ccc(-c3cccs3)cc2)CCN(C(=O)c2ccccc2)CC1 [CBK285794]	94.5
O=C(NC1CCS(=O)(=O)C1)c1cc(-c2cccnc2)cnc1NCc1ccc2c(c1)OCO2 (stereo not shown) [CBK076455]	89.2
NCCNc1ccc([N+](=O)[O-])c(NCc2ccccc2)c1 [CBK262757C]	83.7
CCC(=O)NC1Cc2cccc3c2N(CCC3)C1=O (stereo not shown) [CBK010667]	113
CC(CN1CCOCC1)C(=O)N1CC(C(=O)N2CCN(c3ccccc3)CC2)C1 (stereo not shown) [CBK286047]	90.6
Cc1cnc(CNC(=O)N2CCN(c3ccc(F)cc3)CC2)cn1 [CBK156392]	93.7

Structure (SMILES)	viability at 28.5 h, 10 µM [%]
CC(=O)NCc1ccc(-c2cc(CN(C)C)n(C)n2)cc1 [CBK281667]	99.1
CCN(CC)CCNC(=O)N(CC)Cc1ccncc1 [CBK155151]	105
O=C(Nc1ccc(F)cc1)Nc1cccnc1Cl [CBK058509]	90.4
COc1cccc(C(=O)NC(c2ccc(OC)c(OC)c2)c2cc(Cl)c3cccnc3c2O)c1 (stereo not shown) [CBK264048]	95.4
CCOC(=O)c1c(NC(=O)CSc2nc[nH]n2)sc2c1CCC2 [CBK267225]	94.5
O=C(c1ccco1)N1CCC(n2cnc3cccnc32)CC1 [CBK283939]	91.6
CC1(C)Cc2nc(N3CCOCC3)ncc2C(NC(=O)C2CCC2)C1 (stereo not shown) [CBK306943]	83.8
Cc1ccc2c(c1)C(C)(c1ccccc1)CC(C)(C)N2C(=O)CSc1nncn1C (stereo not shown) [CBK022397]	98.8
N#CC1=C(SCC(=O)Nc2cccc3ccccc23)NC(=O)CC1c1ccco1 (stereo not shown) [CBK265793]	101
O=C(OCc1ccccc1)N1CCC2(CC1)CN(c1ccc(C(F)(F)F)cn1)CCO2 [CBK161116T]	95.8
O=S(=O)(c1cccc(F)c1)N1CCC(Cc2ccccc2)CC1 [CBK044828]	102
COc1ccc(-c2ccc(=O)n(CC(=O)NC(C(=O)O)c3ccccc3)n2)c(F)c1 (stereo not shown) [CBK286769]	97.3
Clc1ccc(-c2nc(-c3ccncc3)no2)c(Cl)c1 [CBK262615]	83.6
COc1cc(OC)c(NC(=O)C(C)Oc2ccc(Br)cc2)cc1Cl (stereo not shown) [CBK266791]	97
CC(C)C(=O)Nc1nc2c(nc(OCc3ccccc3)n2C2CC(O)C(CO)O2)c(=O)[nH]1 (stereo not shown) [CBK201264]	91.8
Cc1cccc(C)c1NC(=O)C(C)Sc1nc2ccccc2c(=O)n1CC1CCCO1 (stereo not shown) [CBK068151]	95
O=C(Cc1c[nH]c2ccccc12)Nc1ccccc1N1CCNCC1 [CBK028288T]	98.1
CCOC(=O)c1c(C)oc2ccc(OCC(=O)c3ccc(Br)cc3)cc12 [CBK263841]	92.4
Cc1csc2c(C3CCN(C(=O)C4CC4)CC3)nc(C)n12 [CBK285241]	88.8
CCSc1cc(Nc2nc(Cl)cc(SCC)n2)nc(N)n1 [CBK005164]	92.6
